Where two headings read alike, the source gives them in different places.
What was measured:
[1] = tested on: SARS-CoV-2; test: microbe, parasite or virus in culture; format: cell-based; details: Severe acute respiratory syndrome coronavirus 2, VeroE6/TMPRSS2, 72 h, 50% SARS-CoV-2 infected cell death inhibitory concentration, VeroE6/TMPRSS2 cells, 3 days culture
[2] = biological target: SARS-CoV-2 3CL protease (Severe acute respiratory syndrome coronavirus 2, UniProt P0DTD1); test: biochemical; details: 50% SARS-CoV-2 3CL protease inhibitory concentration, read-out: IC50

SMILES | EC50 ([1]; CellTiter-Glo 2.0) | IC50 ([2]; RapidFire MS) | EC50 ([1]; class symbols) | IC50 ([2]; given as class symbols)
Cc1cncc(-n2c(=O)nc(Nc3ccc4nn(CC(F)F)cc4c3)n(Cc3cc(C#N)ccc3C)c2=O)c1 [II-0521] | 220 nM | 3.4 nM |  | 
O=c1[nH]cccc1Cn1c(=O)nc(Nc2cc3c(cc2Cl)OCC3)n(Cc2cc(F)c(F)cc2F)c1=O [Compound I-0016] |  |  | < 1000 nM | < 100 nM
O=c1[nH]cccc1Cn1c(=O)nc(Nc2cc3cn(CCOC(F)(F)F)nc3cc2Cl)n(Cc2cc(F)c(F)c(F)c2)c1=O [Compound I-0381] |  |  | 1000 to 10000 nM | < 100 nM
Cn1cnc(Cn2c(=O)nc(Nc3cc4cn(C)nc4cc3Cl)n(Cc3cc(F)c(F)cc3Cl)c2=O)n1 [II-0405] |  |  | < 1000 nM | < 100 nM
O=C1CCC(Nc2nc(=O)n(Cc3ccc[nH]c3=O)c(=O)n2Cc2cc(F)c(F)c(F)c2)CN1 (racemic) [Compound I-0133] |  | 3400 nM | < 1000 nM | 1000 to 10000 nM
CNc1cncc(-n2c(=O)nc(Nc3cc4cn(C)nc4cc3Cl)n(Cc3cc(F)c(F)c(Cl)c3)c2=O)c1 [II-0601] |  |  | < 1000 nM | < 100 nM
CC(C)n1cc2cc(Nc3nc(=O)n(-c4cncc5ccccc45)c(=O)n3Cc3ccc(F)c(C#N)c3)ccc2n1 [II-0168] |  |  | < 1000 nM | < 100 nM
Cc1nc2cc(C)c(Nc3nc(=O)n(-c4cncc5ccccc45)c(=O)n3Cc3ccc(F)c(C#N)c3)cc2o1 [II-0192] | 454 nM | 37 nM |  | 
CNc1nc2cc(Cl)c(Nc3nc(=O)n(-c4cncc(C)c4)c(=O)n3Cc3cc(F)c(F)cc3F)cc2s1 [II-0236] |  |  | < 1000 nM | < 100 nM
N#Cc1cc(Cn2c(Nc3ccc4c(c3)CCCO4)nc(=O)n(-c3cncc4ccccc34)c2=O)ccc1F [II-0159] |  |  | < 1000 nM | < 100 nM
O=c1[nH]cccc1Cn1c(=O)nc(NC2CCCCC2)n(Cc2cc(F)c(F)c(F)c2)c1=O [II-0228] | 5000 nM | 240 nM |  | 
Cn1cc2cc(Nc3nc(=O)n(-c4cncc5ccccc45)c(=O)n3Cc3cc(F)c(F)c(C#N)c3)ccc2n1 [II-0154] |  |  | < 1000 nM | < 100 nM
Cc1cncc(-n2c(=O)nc(Nc3c(Cl)cc4nn(C)cc4c3F)n(Cc3ccc(F)c(C#N)c3)c2=O)c1 [II-0458] |  |  | < 1000 nM | < 100 nM
Cc1cncc(-n2c(=O)nc(Nc3cc4cn(C)nc4cc3Cl)n(Cc3cc(C#N)ccc3Cc3cccc(Cl)c3)c2=O)c1 [II-0181] |  |  | < 1000 nM | < 100 nM
CNc1nc2ccc(Nc3nc(=O)n(-c4cncc(C)c4)c(=O)n3Cc3ccc(F)c(C#N)c3)cc2s1 [II-0313] |  |  | < 1000 nM | < 100 nM
COc1ccc(Nc2nc(=O)n(-c3cncc(C)c3)c(=O)n2Cc2ccc(F)c(C#N)c2)cc1 [II-0182] |  |  | < 1000 nM | < 100 nM
O=c1[nH]cccc1Cn1c(=O)nc(NC2CCS(=O)(=O)CC2)n(Cc2cc(F)c(F)c(F)c2)c1=O [Compound I-0038] |  | 1300 nM | < 1000 nM | 1000 to 10000 nM
Cc1cncc(-n2c(=O)nc(Nc3cc4cn(C)nc4cc3Cl)n(Cc3cc(F)c(F)cc3Cc3cnn(C)c3)c2=O)c1 [II-0018] |  |  | 1000 to 10000 nM | < 100 nM
Cc1cncc(-n2c(=O)nc(Nc3cc4cn(C)nc4cc3Cl)n(Cc3cc(C#N)ccc3C)c2=O)c1 [II-0596] | 62 nM | 1.6 nM |  | 
O=c1[nH]cccc1Cn1c(=O)nc(Nc2cc3cn(CCN4CCOCC4)nc3cc2Cl)n(Cc2cc(F)c(F)c(F)c2)c1=O [Compound I-0249] |  |  | 1000 to 10000 nM | < 100 nM
Cc1cncc(-n2c(=O)nc(Nc3cc4cn(C)nc4cc3Cl)n(Cc3cc(F)c(F)cc3CCC(C)(C)O)c2=O)c1 [II-0073] |  |  | 1000 to 10000 nM | < 100 nM
COc1ccc(Nc2nc(=O)n(Cc3ccc[nH]c3=O)c(=O)n2Cc2ccc(F)c(Br)c2)cc1 [Compound I-0196] |  |  | 1000 to 10000 nM | < 100 nM
Cn1cnc(Cn2c(=O)nc(Nc3cc4cn(C)nc4cc3Br)n(Cc3cc(F)c(F)c(F)c3)c2=O)n1 [II-0448] |  |  | < 1000 nM | < 100 nM

From patent publication US12559474B2, “Triazine derivatives having virus replication inhibitory activity and pharmaceutical composition comprising the same” (priority 2021, dated 2026)
